According to patent US5677459A, “Methods for the preparation of modulators of acetylcholine receptors” (Sibia Neurosciences, Inc., priority 1995, dated 1997):
Where a name gives a salt, the structure may show the parent alone. Read-outs that look alike come from different tables or passages of the source.

How the values were obtained:
[1] = test system: ^3 H-Dopamine release, rat striatal slices; test: Ligand-stimulated ^3 H-dopamine release from rat striatal slices; format: cell-based; conditions: in vitro slices, 300 μM
Procedure: (§1) Measurement of ^3 H-dopamine release from rat striatal slices was performed according to the method of Sacaan et al. (J. Neurochem. 59:245 (1992)). Male Sprague-Dawley rats (250-300 g) were decapitated and the striata or olfactory tubercles dissected quickly on a cold glass surface. The tissue was chopped to a thickness of 300 μm with a McIlwain tissue chopper. After chopping again at right angles the tissue was dispersed and incubated for 10 min. at 37° C. in oxygenated Kreb's buffer. ^3 H-Dopamine (40 Ci/mmol, NEN- Dupont, Boston, Mass.) was added (50 nM) and the tissue was incubated for 30 min. in Kreb's buffer containing 10 μM pargyline and 0.5 mM ascorbic acid. Aliquots of the minced tissue were then transferred to chambers of a Brandel Superfusion system in which the tissue was supported on Whatman GF/B filter discs. The tissue was then superfused with buffer at a constant flow rate of 0.3 ml/min by means of a Brandel peristaltic pump. The perfusate was collected in plastic scintillation vials in 3-min fractions, and the radioactivity was estimated by scintillation spectrophotometry. The superfusate for the first 120 min was discarded. After two baseline fractions had been collected, the superfusion buffer was switched to fresh buffer with or without compound of interest. At the end of the experiment the filter and the tissue were removed, and the radiolabeled neurotransmitter content was estimated after extraction into scintillation fluid. The fractional efflux of radiolabeled neurotransmitter was estimated as the amount of radioactivity in the perfusate fraction relative to the total amount in the tissue.
(§2) Results of studies of the effects of an invention compound (as compared to the effect of nicotine) on the release of neurotransmitters from rat brain slices are presented in Table II. Results presented in Part A of the Table are expressed as the percent fractional release and results presented in Part B of the Table are expressed as a percentage, relative to nicotine response.

[2] = test system: ^3 H-Norepinephrine release, rat hippocampus slices; test: Ligand-stimulated ^3 H-norepinephrine release from rat hippocampus slices; format: cell-based; conditions: in vitro slices, 300 μM
Procedure: as §1
(§3) Following essentially the same procedure as set forth above, the amount of ^3 H-norepinephrine released from rat hippocampus, thalamus and prefrontal cortex slices superfused with buffer containing (or lacking) compounds of interest was also measured.
as §2

[3] = test system: ^3 H-Norepinephrine release, rat thalamus slices; test: Ligand-stimulated ^3 H-norepinephrine release from rat thalamus slices; format: cell-based; conditions: in vitro slices, 300 μM
Procedure: as §1, §3, §2

[4] = test system: ^3 H-Norepinephrine release, rat prefrontal cortex slices; test: Ligand-stimulated ^3 H-norepinephrine release from rat prefrontal cortex slices; format: cell-based; conditions: in vitro slices, 300 μM
Procedure: as §1, §3, §2

[5] = test system: ^3 H-Dopamine release, rat olfactory tubercles; test: Ligand-stimulated ^3 H-dopamine release from rat olfactory tubercles; format: cell-based; conditions: in vitro slices, 300 μM
Procedure: as §1, §2

[6] = test system: rats; test: Locomotor activity assay; format: in vivo, rat (male Sprague-Dawley); conditions: Rattus norvegicus, sc, s.c.
Procedure: This assay can be used to assess the primary effect of a compound on general motor activity. A decrease in locomotor activity is indicative of a possible sedative effect on the animal, whereas an increase in locomotor activity is indicative of a stimulant effect on the animal.
Locomotor activity of rats (male Sprague-Dawley (Harlan) weighing 200-250 gm) was measured for 2 hrs in photocell cages immediately after administration of the invention compound. Prior to the test day, the animals were placed in the activity cages for 3 hrs to familiarize them with the experimental environment. On the test day, the animals were placed in the photocell cages and then injected with compound 1.5 hrs later.
The photocell cages were standard rodent cages (30 cm×20 cm×40 cm) with four infrared beams crossing the long axis. The animals were under no motivational constraints and were free to move around. Movements from one infrared beam to another (ambulation) were called "crossover"; successive interruptions of the same beam (vertical and other movements such as grooming) were called "general activity."

[7] = test system: rats with unilateral 6-hydroxydopamine lesions of the nigrostriatal dopamine pathway; format: in vivo, rat (male Sprague-Dawley); conditions: 1 mg/kg base, s.c., per one hour interval
Procedure: Selective lesions of the brain dopamine pathway using the neurotoxin 6-hydroxydopamine (6-OHDA) in rats can be used as an experimental approach to Parkinson's disease. Unilateral lesions of the nigrostriatal dopamine pathway induce a postural asymmetry which becomes manifested as rotation when the animals are activated by dopamine releasers or dopamine agonists. When amphetamine and other stimulant drugs that induce pre-synaptic release of dopamine from intact nerve terminals are administered, the rats rotate in a direction ipsilateral to the lesion. In contrast, when the rats are injected with post-synaptic dopamine receptor agonists, such as apomorphine, they turn in a contralateral direction, due to the development of supersensitive dopamine receptors in the lesioned side. Thus, the 6-OHDA model can be used to determine if a suspected dopaminergic agent is active, and to differentiate whether such action is pre- or post-synaptic.
The effects of invention compounds on rotational behavior in 6-hydroxydopamine denervated rats were evaluated using the procedure of Ungerstedt and Arbutknott, Brain Res. 24:485-493 (1970). Male Sprague-Dawley rats (Zivic Miller) weighing 170-200 gm were used in the 6-OHDA procedure. The ascending nigrostriatal dopamine pathway was lesioned by unilateral stereotaxic injection of 6-OHDA (8.0 μg) into one substantia nigra. All injections of 6-OHDA were preceded by desmethylimipramine (25 mg/kg i.p.) and pargyline (75 mg/kg i.p.) approximately 30 minutes prior to undergoing stereotaxic surgery for 6-OHDA infusion into the substantia nigra. After one week of recovery from surgery, the effectiveness of the lesions was verified by noting the response of the animals to apomorphine (0.2 mg/kg, s.c.). Only rats with a minimum rate of 80 contralateral turns per 30 minutes (a sign of more than 80-90% dopamine depletion after a 6-OHDA lesion) were used. Two weeks later, the selected rats were tested with invention and reference compounds using an automated rotometer system to record the number and direction of rotations. In order to distinguish spontaneous (non-specific)rotations from induced rotations (specific to the effect of the drug), each rat was used as its own control, employing the following procedure:
The rat was placed in the rotometer system for acclimatation for 15 minutes, the vehicle administered subcutaneously, the rat's rotations recorded for one hour, then test compound was administered s.c. and rotations again recorded for one hour. The number of ipsilateral rotations induced by vehicle was then compared to the number of ipsilateral rotations induced by test compound. Statistical analysis of the data was carried out using Student's t-test (paired).

[8] = biological target: T1, nicotinic acetylcholine receptor (Rattus norvegicus, UniProt P09483+P12390); test: ^3 H-Nicotine binding/displacement, rat cerebral membranes; conditions: ^3 H-nicotine 1.9 nM, rat cerebral membranes; read-out: IC50, Nicotine
T1 construct: the brains removed and the cerebral cortex dissected on ice; from tissue; host or cells: cerebral cortex synaptic membranes of male Sprague-Dawley rats
T1 sequence (P09483 31-630): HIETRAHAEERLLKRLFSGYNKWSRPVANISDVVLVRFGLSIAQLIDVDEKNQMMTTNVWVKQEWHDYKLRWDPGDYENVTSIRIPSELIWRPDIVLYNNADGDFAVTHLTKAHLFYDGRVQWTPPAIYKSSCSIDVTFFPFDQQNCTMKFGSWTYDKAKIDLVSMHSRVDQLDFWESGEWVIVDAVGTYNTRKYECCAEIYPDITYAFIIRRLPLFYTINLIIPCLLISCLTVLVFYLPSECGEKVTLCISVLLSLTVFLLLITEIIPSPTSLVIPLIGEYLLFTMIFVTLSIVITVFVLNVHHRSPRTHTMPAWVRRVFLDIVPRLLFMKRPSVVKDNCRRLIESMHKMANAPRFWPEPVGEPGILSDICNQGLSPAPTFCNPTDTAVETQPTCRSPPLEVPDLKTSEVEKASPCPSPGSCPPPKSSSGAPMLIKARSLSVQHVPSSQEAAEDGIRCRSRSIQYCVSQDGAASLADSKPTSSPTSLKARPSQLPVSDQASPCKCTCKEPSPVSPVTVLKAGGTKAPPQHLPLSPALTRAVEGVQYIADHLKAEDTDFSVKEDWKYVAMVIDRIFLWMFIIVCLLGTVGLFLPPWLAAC
T1 sequence (P12390 25-500): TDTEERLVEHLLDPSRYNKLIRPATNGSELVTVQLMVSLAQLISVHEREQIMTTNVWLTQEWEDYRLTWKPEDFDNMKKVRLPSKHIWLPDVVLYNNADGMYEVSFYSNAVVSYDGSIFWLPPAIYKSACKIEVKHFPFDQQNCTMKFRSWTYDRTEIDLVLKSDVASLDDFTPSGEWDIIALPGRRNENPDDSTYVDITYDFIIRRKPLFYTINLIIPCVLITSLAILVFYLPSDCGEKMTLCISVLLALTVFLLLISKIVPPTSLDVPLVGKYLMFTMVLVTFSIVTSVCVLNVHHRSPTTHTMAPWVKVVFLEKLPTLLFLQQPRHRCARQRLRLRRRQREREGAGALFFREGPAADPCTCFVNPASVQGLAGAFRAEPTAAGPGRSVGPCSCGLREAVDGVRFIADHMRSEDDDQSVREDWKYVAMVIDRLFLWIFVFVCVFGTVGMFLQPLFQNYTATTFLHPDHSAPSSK
Procedure: ^3 H-Nicotine binding to rat cerebral membranes was performed according to modifications of the method of Flyn and Mash (J. Neurochem. 47:1948 (1986)). ^3 H-Nicotine (80 ci/mmol; New England Nuclear Corporation, Boston, Mass.) was used as the ligand for nicotinic acetylcholine receptor binding assays. All other reagents were purchased from the Sigma Chemical Co. (St. Louis, Mo.).
Male Sprague-Dawley rats (250-400 gm) were sacrificed by decapitation, the brains removed and the cerebral cortex dissected on ice. Synaptic membranes were prepared by homogenizing the cortical tissue in 20 volumes of ice-cold modified Tris buffer (50 mM Tris pH 7.4, 120 mM NaCl, 5 mM KCl, 2 mM EDTA, 1 mM PMSF) with a polytron (20 sec at setting 5-6) followed by centrifugation (15 min at 5,000×g) at 4° C. The resultant pellet was rehomogenized and centrifuged twice. The final pellet was resuspended in ice-cold assay buffer (50 mM Tris pH 7.4, 120 mM NaCl, 5 mM KCl, 2 mM CaCl2, 1 mM MgCl2) at a concentration of membrane equivalent to 1 gm wet weight cortex per 10 ml buffer. After protein determination the final membrane preparation was diluted with buffer to 3 mg protein/mi. This membrane preparation was used in either the fresh state or frozen (-70° C.) then thawed.
The binding assay is performed manually using 96-well plates, or using a Biomek automated work station (Beckman Instrument Co.). ^3 H-Nicotine was diluted in assay buffer to give a final concentration of 1.9 nM. The Biomek automated work station was programmed to automatically transfer 750 μl of assay buffer with ^3 H-nicotine, 230 μl of membrane preparation and 20 μl of solution containing the compound of interest in assay buffer, DMSO, ethanol:DMSO (1:1) or appropriate vehicle to the 96-well plate. Atropine was added to the incubation buffer at a final concentration of 3 μM to block binding to muscarinic acetylcholine receptor sites. The plates were maintained on ice for 60 min and the tissue-bound radioactivity was separated from the free by rapid filtration in a Brandel Harvester onto GF/C filters presoaked in 0.5% polyethyleneimine for at least 2 hr. The filters were washed with 4×2 ml of ice-cold assay buffer and filters were transferred to vials to which 4 ml of scintillation cocktail was added. The radioactivity was measured in a LS-6500 Beckman Liquid Scintillation Counter in an autodpm mode. Data were analyzed bylog-logit transformation or non-linear regression analysis (e.g., employing GraphPad Prism, available from GraphPad Software, San Diego, Calif.) to give IC50 values. Non-specific binding was defined by 10 μM cytisine.

[9] = biological target: muscarinic acetylcholine receptors; test: ^3 H-QNB (quinuclidinyl benzilate) binding/displacement, rat cerebral membranes; conditions: ^3 H-QNB 60 pM, rat cerebral membranes
[10] = 1 h, 0-60 min, read-out: Ambulation (cross overs), percent of change from control
[11] = 1 h, 0-60 min, read-out: General Activity (beam breaks), percent of change from control
[12] = 2 h, 60-120 min, read-out: Ambulation (cross overs), percent of change from control
[13] = 2 h, 60-120 min, read-out: General Activity (beam breaks), percent of change from control

SMILES	percent fractional release, ^3 H-Dopamine, Striatum [1] [%]	percent fractional release, ^3 H-Norepinephrine, Hippocampus [2] [%]	percent fractional release, ^3 H-Norepinephrine, Thalamus [3] [%]	percent fractional release, ^3 H-Norepinephrine, Prefrontal Cortex [4] [%]	percent fractional release, ^3 H-Dopamine, Olfactory Tubercles [5] [%]	change in vivo at 20 mg/kg [6, 10] [%]	change in vivo at 20 mg/kg [6, 11] [%]	change in vivo at 20 mg/kg [6, 12] [%]	change in vivo at 20 mg/kg [6, 13] [%]	Percent change from control (ipsilateral rotations) [7]	change in vivo at 0.5 mg/kg ([6]; 2 h, 60-120 min, 0.5 mg/kg salt, read-out: General Activity (beam breaks), percent of change from control) [%]	IC50 [8] [nM]	IC50 [9] [µM]
CN1CCCC1c1cncc(-c2ccc(F)cc2)c1.O=C(O)/C=C/C(=O)O (stereo not drawn) [A = CH2; R^7 = CH3; R^5 = 4-fluorophenyl, 5-(4-Fluorophenyl)-3-(1-methyl-2-pyrrolidinyl) pyridine fumarate]	1.96	0.58	0.9	1.23	2.68	21	95	14	173	–	–	–	–
CC(N)Cc1ccccc1 (stereo not drawn) [Amphetamine, amphetamine, reference compound]	–	–	–	–	–	–	–	–	–	+487%	456	–	–
CN1CCCC1c1cncc(-c2ccc(O)c(F)c2)c1.O=C(O)/C=C/C(=O)O (stereo not drawn) [R^5 = 3-fluoro-4-hydroxyphenyl, 5-(4-hydroxy-3-fluorophenyl)-3-(1-methyl-2-pyrrolidinyl)pyridine fumarate]	3.33	1.47	–	1.14	7.07	49	63	-14	26	–	–	29	35
CN1CCCC1c1cncc(-c2ccc(-c3ccccc3)cc2)c1 (stereo not drawn) [R^5 = 4-biphenyl, 5-(4-Biphenyl)-3-(1-methyl-2-pyrrolidinyl)pyridine fumarate]	2.2	2.9	1.1	3.4	6.3	-9	-17	73	98	–	–	47	9.5
CN1CCCC1c1cncc(-c2ccc(O)cc2)c1.O=C(O)/C=C/C(=O)O (stereo not drawn) [R^5 = 4-hydroxyphenyl, 5-(4-Hydroxyphenyl)-3-(1-methyl-2-pyrrolidinyl)pyridine fumarate]	3.73	3.03	2.3	3.16	6.62	74	96	110	7	–	–	5.4	19.1
COc1ccc(-c2cncc(C3CCCN3C)c2)cc1.O=C(O)/C=C/C(=O)O (stereo not drawn) [R^5 = 4-methyoxyphenyl, 5-(4-Methoxyphenyl)-3-(1-methyl-2-pyrrolidinyl)pyridine fumarate]	2.1	0.99	0.52	1.04	4.0	58	83	31	22	–	–	18	37.7
